The conditions of test [1]: versus 40% control; cited from earlier work.
In test [2] the target is MIF (Homo sapiens (Human), UniProt P14174). Put plainly: MIF dopachrome tautomerase assay. Format: biochemical. Particulars: (S)-isomer relative to (R)-isomer.
Protocol: MIF tautomerase activity was measured by UV-Visible recording spectrophotometry (SHIMADZU, UV1600U). A fresh stock solution of L-dopachrome methyl ester was prepared at 2.4 mM through oxidation of L-3,4-dihydroxyphenylalanine methyl ester with sodium periodate. 1 μL of MIF solution (800-900 ng/mL) and 1 μL of a DMSO solution with various concentrations of the enzymatic inhibitor were added into a plastic cuvette (10 mm, 1.5 mL) containing 0.7 mL assay buffer (50 mM potassium phosphate, pH 7.2). Then L-dopachrome methyl ester solution (0.3 mL) was added to the assay buffer mixture. Activity was determined at room temperature and the spectrometric measurements were made at λ=475 nm for 20 seconds by monitoring the rate of decolorization of L-dopachrome methyl ester in comparison to a standard solution.
The test system of test [3] is leukocyte recruitment. Put plainly: Air pouch carrageenan model of acute inflammation, leukocyte recruitment. Format: in vivo, Swiss Webster male mice. Particulars: 40 mg/kg single i.p., 15 min before 1% carrageenan into air pouch, 5 hr after carrageenan. The procedure: Air pouches were made according to standard procedures (Garcia-Ramallo et al., 2002) on Swiss Webster male mice (25-30 g) by injecting sterile air s.c. on day 0 (6 ml) and day 3 (3 ml). […] After 15 min, the animals were challenged by injecting 1 ml 1% carrageenan (in PBS) into the air pouch cavity. Five hr after carrageenan injection the animals were sacrificed, the pouches washed with PBS, exudate collected, and the total number of infiltrating cells quantitated.

The test system of test [4] is rheumatoid arthritis fibroblast-like synoviocytes (RA-FLS). Briefly: Cell invasion through Matrigel Invasion Chambers. Format: cell-based. The note with it: 100 nM ISO-63 or 25 μM ISO-1, one day treatment, 24 hours incubation. The method, then: Invasion was assayed by measuring cell invasion through Matrigel Invasion Chambers (Becton Dickinson, Mass.). […] 500 μl of whole medium containing 10% FBS and 10% human serum and was added to the bottom chamber. After 24 hours of incubation at 37° C., cells on the upper surface of the filter were wiped off with a Q-tip and the filter was fixed in 4% formaldehyde/PBS. After staining with crystal violet, migrated cells were counted using an inverted microscope.

Entries after “also recorded” stand apart in the source; their conditions may differ.

Chain of MIF (P14174 2-115): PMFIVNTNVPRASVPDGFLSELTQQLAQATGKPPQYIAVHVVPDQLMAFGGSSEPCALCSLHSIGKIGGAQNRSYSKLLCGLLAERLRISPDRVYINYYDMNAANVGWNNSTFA

On to `COC(=O)C[C@@H]1CC(c2ccc(O)cc2)=NO1` (racemic) [ISO-1, (S,R)-3-(4-hydroxyphenyl)-4,5-dihydro-5-isoxazole acetic acid methyl ester, reference compound], for which, in test [1], the “protection in sepsis model” value was 80%.

As for `COC(=O)C[C@@H]1CC(c2ccc(O)cc2)=NO1` [(S)-ISO-1], the “less active than the (R)-isomer” value in test [2] was found to be 50%.

In the case of `CC(C)C(OC(=O)CC1CC(c2ccc(O)c(F)c2)=NO1)C(C)C` (stereo not shown) [ISO-63], the “leukocyte recruitment (total number of infiltrating cells)” value in test [3] is reported as “inhibits leukocyte recruitment; also recorded: caused a significant reduction in leukocyte recruitment”. The “invasion of RA-FLS into Matrigel (migrated cells)” value in test [4] is “inhibits the invasion; also recorded: reduced cell invasion to a much greater extent than the ISO-1 treatment”.
